Results: ChEMBL document CHEMBL1649252, “Plasmodium falciparum drug resistance in Madagascar: facing the spread of unusual pfdhfr and pfmdr-1 haplotypes and the decrease of dihydroartemisinin susceptibility” (Antimicrob Agents Chemother, 2009)

Legend:
[1] = tested on: Plasmodium falciparum; test: Antimalarial activity against Plasmodium falciparum assessed as resistant isolates; type: functional
[2] = tested on: Plasmodium falciparum; test: Antimalarial activity against Plasmodium falciparum assessed as parasite growth inhibition after 48 hrs by [3H]hypoxanthin incorporation assay; type: functional, organism-based

Row | SMILES | Activity [1] [%] | IC50 [2] [nM]
1 | C[C@H]1[C@@H](O)O[C@@H]2O[C@@]3(C)CC[C@H]4[C@H](C)CC[C@@H]1[C@@]24OO3 [ARTENIMOL] | 0 | 0.95
2 | CCN(CC)CCCC(C)Nc1ccnc2cc(Cl)ccc12 (centres undefined) [CHLOROQUINE] | 3.2 | 
3 | CCNCc1cc(Nc2ccnc3cc(Cl)ccc23)ccc1O [DESETHYL AMODIAQUINE] | 0.5 | 8.3
4 | OC(c1cc(C(F)(F)F)nc2c(C(F)(F)F)cccc12)C1CCCCN1 (centres undefined) [MEFLOQUINE] | 0.4 | 6.7
5 | C=C[C@H]1CN2CC[C@H]1C[C@H]2[C@H](O)c1ccnc2ccc(OC)cc12 [QUININE] | 0 | 53.7
